Measured values as given in patent US20120122848A1, “(+)-3-HYDROXYMORPHINAN DERIVATIVES AS NEUROPROTECTANTS” (GREEN CROSS CORPORATION, priority 2009, published 2012).
pEC50: −log10 of the molar value. Structures can show the parent of a compound that is named as a salt.

Columns and labels:
[1] = Cell cytotoxicity test: protection of HT22 cells against glutamate toxicity (EC50) and cytotoxicity of the compounds (CC50), MTT; assay type: cell-based, mouse; settings: mouse, HT22 cells (mouse hippocampal neuron)
In short: (§1)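 Cells plated 16 hrs, then exposed to 5 mM glutamate plus a compound concentration series for 24 hrs in DMEM with 10% FBS. Viability by MTT (4 hrs), absorbance at 450 nm; EC50 is protection against glutamate toxicity, CC50 is compound cytotoxicity.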

[2] = test system: HT22 cells (mouse hippocampal neuron); assay: as above; assay type: cell-based; settings: Mus musculus, HT-22, five millimolar glutamate, 24 hrs, read-out: EC50 (neuroprotective effect against glutamate toxicity)
In short: as §1

HT22 cells = assay: ROS measurement using DCFDA in glutamate-treated HT22 cells; assay type: cell-based; settings: Mus musculus, HT-22, 5 mM glutamate, 8 hrs
Procedure: HT22 cells (1×10^4) plated in a 96-well plate were treated with 5 mM glutamate in the absence or presence of 3-HM.HBr or the compound of Example 26, and incubated for 8 hrs. After washing with PBS, cells were stained with 10 μM 2,7-dichlorodihydrofluorescein diacetate (DCFDA) in HBSS (Hank's balanced salt solution, Gibco) for 30 min in the dark. Then the cells were washed with PBS twice and extracted with 1% Triton X-100 in PBS for 10 min at 37° C. Fluorescence was recorded with the excitation wavelength of 490 nm and the emission wavelength of 525 nm (Infinite M200, TECAN) [Da-Qing, et. al., Anti-oxidant and anti-inflammatory activities of macelignan in murine hippocampal cell line and primary culture of rat microglia cells, BBRC, 2005, 331, 1264-1269]. The EC50 values were analyzed statistically using Prizm® (GraphPad Software Inc., San Diego, Calif., USA).

SirT1 [3] = assay: RT-PCR analysis of target gene expression under glutamate toxicity in HT22 cells; assay type: cell-based, mouse; settings: 10 mM glutamate, 18 hrs
Procedure: HT22 cells (1.5×10^7) plated in a 100 mm dish were treated with 10 mM glutamate in the absence or presence of 3-HM.HBr or the compound of Example 26 and incubated for 18 hrs. Oligonucleotide primers used for the PCR amplification were DJ-1 (PARK7), LRRK2 (Leucine-rich repeat kinase 2), PINK1 (PTEN induced putative kinase 1), SirT1 (silent mating type information regulation 2 homolog 1 (S. cerevisiae)), SirT2 (silent mating type information regulation 2 homolog 2 (S. cerevisiae)), and others. PCR products were electrophoresed on 2% agarose gels and detected by ethidium bromide [Kumiko I. et al., The Activation of Dopamine D4 Receptors Inhibits Oxidative Stress-Induced Nerve Cell Death., J. Neurosci., 2001].
FIG. 2A and FIG. 2B show the results of reverse transcription polymerase chain reaction.
In FIG. 2A, Lane 1 is mock, Lane 2 is the group treated with 10 mM Glutamate, and Lane 3 is the group treated with 10 mM Glutamate and 100 uM 3-HM.HBr. […]

SirT1 [4] = assay: Western blotting analysis of SirT1 in glutamate-treated HT22 cells; assay type: cell-based, mouse; settings: 10 mM glutamate, 18 hrs
Procedure: HT22 cells (1.5×10^7) plated in a 100 mm dish were treated with 10 mM glutamate in the absence or presence of 3-HM.HBr or the compound of Example 26, and incubated for 18 hrs. The cells were collected by scraping in a sample buffer (3% SDS, 1% glycerol, 0.5% 2-mercaptoethanol, 0.05% bromophenol blue, and 80 mM Tris-HCl buffer, pH 6.8, with complete protease inhibitors). The resulting suspention was centrifuged and the pellets thus obtained were re-suspended in the sample buffer. The samples were heated for 3 min in boiling water, fractionated on 4-20% polyacrylamide gels, and electroblotted onto membranes. SirT1 affinity purified polyclonal antibody was used as the primary antibody. Immunoreactive bands were detected with the ECL (Amersham Pharmacia Biotech, Arlington Heights, Ill.) Western blotting detection reagents [Kumiko, I. et al., The Activation of Dopamine D4 Receptors Inhibits Oxidative Stress-Induced Nerve Cell Death., J. Neurosci., 2001, 21(16):6069-6076]. […]

[5] = Total antioxidant activity assay (TEAC; metmyoglobin, 2,2′-azinobis(3-ethylbenzoline 6-sulfonate), H2O2)
Procedure: Briefly, 1 ml of reaction mixture including 2.5 μM metmyoglobin, 150 μM 2,2′-azinobis(3-ethylbenzoline 6-sulfonate), 75 μM H2O2, and 0.84% sample or Trolox (for standard) in PBS was incubated for 7.5 min at 30° C.; then the absorbance at 734 nm was measured. The data are normalized to 1 mM Trolox (TEAC activity) [Kumiko I. et al., The Activation of Dopamine D4 Receptors Inhibits Oxidative Stress-Induced Nerve Cell Death., J. Neurosci., 2001]. The EC50 values were analyzed statistically using Prizm® (GraphPad Software Inc., San Diego, Calif., USA).

[6] = test system: dopamine (DA) neurons in substantia nigra pars compacta; settings: MPTP model, daily injections; cited from earlier work

| Compound | CC50 at 24 h [1] | pEC50 [2] | pEC50 (HT22 cells) | SirT1 expression levels (RT-PCR) (SirT1 [3]) | SirT1 expression (Western blotting) (SirT1 [4]) | inhibition (total antioxidant activity) ([5]; at 100 μM) | pEC50 ([5]; 7.5 min at 30° C., absorbance at 734 nm) | DA levels in striatum [6] | protection of DA neurons in substantia nigra pars compacta [6] |
| --- | --- | --- | --- | --- | --- | --- | --- | --- | --- |
| Oc1ccc2c(c1)[C@]13CCCC[C@@H]1[C@H](C2)NCC3 [3-HM•HBr, (+)-3-hydroxymorphinan HBr, reference compound] | > 100 µM | 4.50 | 4.41 | decreased SirT1 expression levels were elevated | this decreasing was protected | 22.4% | – | – | – |
| Oc1ccc(Nc2cc3c(cc2O)[C@]24CCCC[C@@H]2[C@H](C3)NCC4)cc1 [Example 26, (+)-3-Hydroxy-2-(4-hydroxyphenylamino)morphinan TFA salt] | 2.31 µM | 8.34 | 5.51 | decreased SirT1 expression levels were elevated | this decreasing was protected | – | 4.49 | – | – |
| Oc1ccc2c(c1)[C@]13CCCC[C@@H]1[C@H](C2)NCC3 [(+)-3-HM, (+)-3-Hydroxymorphinan] | – | – | – | – | – | – | – | DA levels in striatum has been restored | dopamine (DA) neurons in substantia nigra pars compacta have been protected |
